Assay results as given in US20080039434A1, “Treatment of Interstitial Cystitis with Vitamin D Compounds” (BioXell S. p.A., priority 2004, published 2008).

Experiments:
[1] = Calcemia assessment in allergic IC mice (colorimetric serum calcium assay); assay type: in vivo, mouse; conditions: oral ug/kg: C 3, A 0.1, E 0.3, F 30, G 100, H 1, I 3; elevations p<0.001
Procedure: Serum calcemia was evaluated by a commercially available colorimetric assay (Calcium Dry-Fast, Sentinel CH. Italy). Briefly, 10 ul serum were added to 100 ul reaction solution prepared according to the manufacturer's procedure in a 96-wells plate. After 5 min incubation at RT samples were read at 570 nm with a spectrophotometer and the calcium levels were calculated in triplicate by using a standard reference as directed.

MMCP4 = assay: Taq-Man analysis of bladder mRNA, allergic IC in mice: MMCP4; assay type: in vivo, mouse; conditions: ovalbumin challenged vs vehicle; oral ug/kg: E 0.3, F 30, H 1, I 3; H, I p<0.05, E, F p<0.001
Procedure: (§1) Mice (BALB/c, females 8 weeks old, weight 18-20 g, Charles River, Calco ITA) were sensitized by injecting 10 ug/mouse of chicken ovalbumin from Sigma (OVA, grade V) in the presence of 4 mg of alum (SERVA, Germany) by intraperitoneal injection, once a week for 4 weeks. This induces a sustained level of IgE detectable in serum.
(§2) One or two weeks after the last immunization boost, sensitized mice were anesthetized (1.5% Isoflurane) and then trans-urethrally catheterized (24 gauge, ¾ in.; Angiocath, Becton-Dickson). Slight digital pressure was applied the lower abdomen to drain the urine.
(§3) The urinary bladders were instilled with either 150 ul of either saline or OVA alone, (1 mg/150 ul) infused at a slow rate to avoid trauma and vesico-ureteral reflux and repeated twice within a 30-min interval with the syringe kept in place on the catheter for at least 30 min. Intravesical challenge was repeated 7-10 days after the first one with the same procedure.
(§4) An ethanol stock solution of Compound B (1 mg/ml) was dissolved in Miglyol vehicle at the appropriate concentration. Control animals received the vehicle containing the same amount of ethanol. Drug (or vehicle) treatment was carried out by daily gavage after weighing the animal. Drug solution was prepared calculating a final volume of 100 ul/10 grams body weight, and treatment was started on the day of the first intravesical ovalbumin challenge, maintained daily, but discontinued over the weekends, for 12 days total treatment. FIG. 7 illustrates the timeline of the experiment.
(§5) Total RNA was extracted from one half of bladder by using RNeasy Mini kit (Qiagen), treated with DNase 1 (Qiagen) and reverse transcription performed with Reverse Transcription Reagent (Applied Biosystems) with Random Hexamers (according to the manufacturer's instructions). cDNA was synthesized from 1 ug of RNA. Real-Time PCR was performed in 96-well optical reaction plates (Applied Biosystems). For each sample we amplified both the target gene and the housekeeping gene (HPRT) in different wells (singleplex) and in duplicate. The amplification Master Mix was prepared according to the following protocol (volumes refer to a single well with a final volume of 40 ul/well)): 2× TaqMan® R Universal PCR Master Mix (Applied Biosystems, 4304437): 20 ul; 20× Assay target gene: 2 ul; H2O: 8 ul; cDNA: 10 ul. Reaction was run on an SDS 7000 (Applied Biosystems) instruments, with the following amplification program: 2′ at 50° C.; 10′ at 95° C.; 15″ at 95° C. and 1′ at 60° C. for 40 cycles; Cycle threshold (Ct) values were exported into Excel Worksheets for analysis and relative quantitations were performed using the ΔCt method. All primers used carried the FAM reporter.
(§6) Experiments in Example 7 were performed according to the general procedures described previously in Example 6. Mice were challenged with saline (untreated) or ovalbumin (treatment with vehicle or one of Compounds C-I at a dosage indicated in Table 6 in ug/kg).

IL-13 = assay: Taq-Man analysis of bladder mRNA, allergic IC in mice: IL-13; assay type: in vivo, mouse; conditions: ovalbumin challenged vs vehicle; oral ug/kg: E 0.3, F 30, H 1, I 3; H, I p<0.05, E, F p<0.001
Procedure: as §1, §2, §3, §4, §5, §6

FcεR1α = assay: Taq-Man analysis of bladder mRNA, allergic IC in mice: FcεR1α; assay type: in vivo, mouse; conditions: ovalbumin challenged vs vehicle; oral ug/kg: E 0.3, F 30, H 1; E, H p<0.05, F p<0.001
Procedure: as §1, §2, §3, §4, §5, §6

[2] = tested on: allergen-induced chronic bladder inflammation; assay: Efficacy ranking in the allergen-induced chronic bladder inflammation model of interstitial cystitis; assay type: in vivo, mouse; conditions: each compound at its tested dosage
Procedure: as §6
Summarizing all the results presented above in Example 7, we can conclude that these compounds can be ranked with respect to their efficacy in reducing several parameters measuring inflammation of the bladder in the allergen-induced chronic bladder inflammation model of interstitial cystitis.

[3] = tested on: ovalbumin-challenged mouse bladder; assay: Blind histological analysis of bladder sections, allergic IC in mice; assay type: in vivo; conditions: p<0.05; for number of LMPC in the bladder wall: oral ug/kg: E 0.3, I 3, vs vehicle
Procedure: as §1, §2, §3, §4
Bladders were explanted from the animals, longitudinally divided in two moieties, one half was either immediately fixed in formalin (10% buffered) for at least 3 hrs or snap frozen in liquid nitrogen upon inclusion in OCT freezing medium (Tissue-Tek Sakura). For histological analysis, fixed bladders were further processed and finally paraffin embedded. Five um sections were serially cut then stained with GIEMSA (BDH, 20% solution, 3 hrs RT) and then de-stained in 0.1% acetic acid for 10 sec. After a clarification step in Xylene, slides were permanently mounted with Eukitt medium and analyzed by a pathologist in a blinded fashion in order to evaluate for inflammatory cell infiltrate, mast cell numbers, and the presence of interstitial edema. A semi-quantitative histological score was used, assigning: 1 for mild infiltrate, no edema; 2 for intermediate infiltration, little edema; and 3 for severe infiltration and edema.
as §6

MMCP1 protein = assay: Serum level of mast-cell derived chymase MMCP1 protein, allergic IC in mice; assay type: in vivo, mouse; conditions: ovalbumin challenged vs vehicle; oral ug/kg: A 0.1, E 0.3, F 30; F p<0.05, A, E p<0.001
Procedure: as §1, §2, §3
Treatment Group: 10 mice were treated with oral vitamin D3 analogue (1-alpha-fluoro-25-hydroxy-16,23Ediene-26,27-bishomo-20-epi-cholecalciferol) Compound “B” for 14 days (daily dose of either 30 or 75 ug/kg).
as §4, §6

[4] = tested on: patients with interstitial cystitis; conditions: oral administration, long term basis; cited from earlier work
BPH cells = conditions: previously found; cited from earlier work

Q: With C=C1/C(=C\C=C2/CCC[C@]3(C)C(C4(CCCC(C)(C)O)CC4)=CCC23)CC(O)C[C@@H]1O (stereo partly drawn) [Compound H, 1α,25-Dihydroxy-16-ene-20-cyclopropyl-cholecalciferol] as the molecule, how does the “serum calcium levels relative to the vehicle treated control group” value [1] read?
A: The value was “slight elevation”.

Q: And the “mRNA expression level of MMCP4 gene” value (MMCP4)?
A: The value was “statistically significant reductions”.

Q: And the “mRNA expression level of the IL-13 gene” value (IL-13)?
A: The value was “statistically significant reductions”.

Q: And the “mRNA expression level of the FcεR1α gene” value (FcεR1α)?
A: The value was “statistically significant reductions”.

Q: What about the “Efficacy ranking in reducing parameters of bladder inflammation” value (“Efficacy ranking in reducing parameters” below) [2] of the same molecule?
A: Its value is “Compound E>Compound F>Compound B>Compound H>Compound I>Compound A>Compound A=Compound G”.

Q: Which results are given for CC(C)(O)CCCC(CCCC(C)(C)O)[C@H]1CC[C@H]2/C(=C/C=C3C[C@@H](O)C[C@H](O)C3)CCC[C@]12C [Compound I, 1,25-dihydroxy-21-(3-hydroxy-3-methylbutyl)-19-nor-cholecalciferol]?
A: serum calcium levels relative to the vehicle treated control group [1]: slight elevation; mRNA expression level of MMCP4 gene (MMCP4): statistically significant reductions; mRNA expression level of the IL-13 gene (IL-13): statistically significant reductions; number of LMPC in the bladder wall [3]: significant reduction; Efficacy ranking in reducing parameters of bladder inflammation [2]: Compound E>Compound F>Compound B>Compound H>Compound I>Compound A>Compound A=Compound G

Q: With C=C1/C(=C\C=C2/CCC[C@@]3(C)C2CCC3C2(CCCC(C)(C)O)CC2)CC(OC(C)=O)C[C@@H]1OC(C)=O (stereo partly shown) [Compound F, 1,3-Di-O-acetyl-1,25-dihydroxy-20-cyclopropyl-cholecalciferol] as the molecule, how does the “serum calcium levels relative to the vehicle treated control group” value [1] read?
A: Its value is “slight elevation”.

Q: What about the “mRNA expression level of MMCP4 gene” value (MMCP4) of the same molecule?
A: Its value is “statistically significant reductions”.

Q: What about the “mRNA expression level of the IL-13 gene” value (IL-13) of the same molecule?
A: The value was “statistically significant reductions”.

Q: And the “serum level of the MMCP1 protein” value (MMCP1 protein)?
A: Its value is “statistically significant reduction”.

Q: What about the “mRNA expression level of the FcεR1α gene” value (FcεR1α) of the same molecule?
A: Its value is “statistically significant reductions”.

Q: And the “Efficacy ranking in reducing parameters” value [2]?
A: The value was “Compound E>Compound F>Compound B>Compound H>Compound I>Compound A>Compound A=Compound G”.

Q: For pentosan polysulphate sodium [PPS], which “patients who show a beneficial effect” value [4] is on record?
A: The value was “less than 20%”.

Q: Which BPH cell proliferation (BPH cells) does the source give for C=C1CC[C@H](O)C/C1=C/C=C1\CCC[C@]2(C)[C@@H]([C@H](C)CCCC(C)C)CC[C@@H]12 [vitamin D3] here?
A: The BPH cell proliferation was “inhibited”.

Q: And the “mitogenic activity of growth factors KGF and IGF1 for BPH cells” value (BPH cells)?
A: Its value is “counteracted”.

Q: For CC(=O)OC1C/C(=C/C=C2\CCC[C@]3(C)C(C(C)CCCC(C)(C)O)=CCC23)C[C@@H](OC(C)=O)C1 (stereo partly shown) [Compound C, 1,3-Di-O-acetyl-1,25-dihydroxy-16-ene-19-nor-cholecalciferol], which “serum calcium levels relative to the vehicle treated control group” value [1] is on record?
A: The value was “slight elevation”.

Q: And the “numbers of mast cells in the bladder wall” value ([3]; 3 ug/kg oral vs vehicle)?
A: The value was “significantly reduced numbers”.

Q: Which “serum calcium levels relative to the vehicle treated control group” value [1] does the source give for CC(=O)OC1C/C(=C/C=C2\CCC[C@@]3(C)C2CCC3C2(C/C=C/C(O)(C(F)(F)F)C(F)(F)F)CC2)C[C@@H](OC(C)=O)C1 (stereo partly shown) [Compound E, 1,3-Di-O-acetyl-1,25-dihydroxy-20-cyclopropyl-23E-ene-26,27-hexafluoro-19-nor-cholecalciferol] here?
A: Its value is “slight elevation”.

Q: And the “mRNA expression level of MMCP4 gene” value (MMCP4)?
A: Its value is “statistically significant reductions”.

Q: What about the “mRNA expression level of the IL-13 gene” value (IL-13) of the same molecule?
A: The value was “statistically significant reductions”.

Q: What about the “number of LMPC in the bladder wall” value [3] of the same molecule?
A: Its value is “significant reduction”.

Q: What about the “serum level of the MMCP1 protein” value (MMCP1 protein) of the same molecule?
A: Its value is “statistically significant reduction”.

Q: And the “mRNA expression level of the FcεR1α gene” value (FcεR1α)?
A: Its value is “statistically significant reductions”.

Q: And the “Efficacy ranking in reducing parameters” value [2]?
A: The value was “Compound E>Compound F>Compound B>Compound H>Compound I>Compound A>Compound A=Compound G”.
